According to paper PMC4231100, “Cerebral Artery Alpha-1 AR Subtypes: High Altitude Long-Term Acclimatization Responses” (PLoS ONE, 2014):
Counter-ions that a name gives are not always drawn.

Experiments:
α1D-AR = target: T1, α1D-AR (Ovis aries, UniProt A0ACI6RHM3); assay: functional antagonism (KB) of phenylephrine-induced contraction in isolated arteries
T1 construct: gene ADRA1D
T1 sequence (A0ACI6RHM3 1-564): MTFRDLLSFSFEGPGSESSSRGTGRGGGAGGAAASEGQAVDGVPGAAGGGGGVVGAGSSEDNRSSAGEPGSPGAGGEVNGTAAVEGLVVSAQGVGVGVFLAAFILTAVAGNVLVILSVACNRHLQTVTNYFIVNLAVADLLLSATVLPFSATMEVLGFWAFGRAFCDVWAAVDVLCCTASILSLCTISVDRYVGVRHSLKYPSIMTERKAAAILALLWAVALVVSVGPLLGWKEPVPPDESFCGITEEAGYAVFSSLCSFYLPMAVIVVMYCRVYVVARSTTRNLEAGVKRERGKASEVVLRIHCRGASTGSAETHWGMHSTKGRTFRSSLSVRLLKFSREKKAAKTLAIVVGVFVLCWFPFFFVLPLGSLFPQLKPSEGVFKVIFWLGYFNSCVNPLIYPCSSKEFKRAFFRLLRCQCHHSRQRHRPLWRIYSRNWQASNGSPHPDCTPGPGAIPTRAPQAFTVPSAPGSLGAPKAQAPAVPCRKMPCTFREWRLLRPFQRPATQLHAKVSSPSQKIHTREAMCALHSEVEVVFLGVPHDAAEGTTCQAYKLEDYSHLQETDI

α1A-AR = target: T2, α1A-AR (Ovis aries, UniProt A0ACI6NWI5); assay: as above
T2 construct: gene ADRA1A
T2 sequence (A0ACI6NWI5 1-466): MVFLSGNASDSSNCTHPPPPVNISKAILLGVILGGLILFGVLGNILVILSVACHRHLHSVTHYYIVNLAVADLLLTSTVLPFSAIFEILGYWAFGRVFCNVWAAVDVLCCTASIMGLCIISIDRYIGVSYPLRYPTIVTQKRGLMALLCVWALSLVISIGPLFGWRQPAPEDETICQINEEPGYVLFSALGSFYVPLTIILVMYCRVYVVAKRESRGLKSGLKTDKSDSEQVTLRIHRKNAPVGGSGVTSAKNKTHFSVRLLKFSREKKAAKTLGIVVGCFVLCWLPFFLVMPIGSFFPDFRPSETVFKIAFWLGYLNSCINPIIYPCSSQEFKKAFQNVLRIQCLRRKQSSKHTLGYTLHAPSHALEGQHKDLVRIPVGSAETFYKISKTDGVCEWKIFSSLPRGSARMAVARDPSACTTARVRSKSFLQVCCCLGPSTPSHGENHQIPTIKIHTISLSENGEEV

SMILES | Kb (α1D-AR) | Kb (α1A-AR)
COc1ccccc1N1CCN(CCN2C(=O)CC3(CCCC3)CC2=O)CC1 [BMY, 8-(2-[4-(2-Methoxyphenyl)-1-piperazinyl]ethyl)-8-azaspiro(4.5)decane-7,9-dione] | 6.7 nM | 
COc1cccc(OC)c1OCCNCC1COc2ccccc2O1 (centres unmarked) [WB, 2-([2,6-Dimethoxyphenoxyethyl]a-minomethyl)-1,4-benzodioxane hydrochloride] |  | 11 nM
